Values of other authors in patent publication US11780971B2, “Active yarns and textiles for the stabilization and controlled release of active compounds” (priority 2018, dated 2023).
“And” between values parts separate entries of the source, which are not always exact repeats. Equal values may be shown once.

Test system: Staphylococcus aureus strain

SMILES: C=CCc1ccc(O)c(OC)c1 [eugenol]
- Minimum Inhibitory Concentration (MIC): 625 µg/mL and 662 µg/mL
